Assay results taken from PMC11227560, “Tyrosol blocks E. coli anaerobic biofilm formation via YbfA and FNR to increase antibiotic susceptibility” (Nature Communications, 2024).

Target: T1, YbfA (Escherichia coli, UniProt P0AAU2)
T1 construct: recombinant 6xHis-tagged YbfA (pET28a), ybfA gene cloned from E. coli W3110
Test: isothermal titration calorimetry (ITC), […] °C
Assay type: binding

T1 sequence (P0AAU2 22-68): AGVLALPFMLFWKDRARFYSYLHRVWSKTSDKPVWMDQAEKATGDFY

## OCCc1ccc(O)cc1 [tyrosol]
  Kd: 4.65 ± 0.11 µM
